Converted amounts (≈) assume the structure as drawn. Non-standard residues stand in square brackets, D forms with d. Residues, ends and D or L forms follow the SMILES beside them. *: point of attachment. Lauroyl = CCCCCCCCCCCC(=O)*; Decanoyl = CCCCCCCCCC(=O)*; Octanoyl = CCCCCCCC(=O)*
How the values were obtained:
Assay type in all cases: cell-based
[1] = tested on: Staphylococcus aureus ATCC 29213; test: MIC, NCCLS M7-A6 broth microdilution, cation-adjusted Mueller Hinton broth (Table 9, no superscript); conditions: ATCC 29213
Method in brief: (§1)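 Values come from a broth microdilution assay run in cation-adjusted Mueller Hinton broth with an inoculum of 5×10^5 to 1×10^6 CFU/milliliter, incubated overnight at 37° C and read as absence of visible turbidity.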

[2] = tested on: Escherichia coli ATCC 25922; test: MIC, NCCLS M7-A6 broth microdilution (Table 9, no superscript); conditions: ATCC 25922
Method in brief: as §1

[3] = tested on: Pseudomonas aeruginosa ATCC 27853; test: as above; conditions: ATCC 27853
Method in brief: as §1

Salmonella dublin (Lane) = test: as above
Method in brief: as §1

[4] = tested on: Staphylococcus epidermidis ATCC 12228; test: as above; conditions: ATCC 12228
Method in brief: as §1

[5] = tested on: Propionibacterium acnes ATCC 6919; test: MIC, agar dilution method NCCLS M11-A6, Brucella agar, anaerobic (Table 9, superscript c); conditions: ATCC 6919
Method in brief: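 MIC taken as the lowest peptide level giving no colonies on the plate. Plates were inoculated to 1.5×10^8 CFU/milliliter, then kept anaerobically at 37° C. for 48-96 hours; method follows NCCLS M11-A6.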

[6] = tested on: Candida albicans ATCC 18804; test: MIC in yeasts, NCCLS M27-A2 broth microdilution, RPMI 1640 (Table 9, letter e); conditions: ATCC 18804
Method in brief: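 Plates incubated 24 to 48 hours at 37° C, with yeast seeded at 0.5×10^3–2.5×10^3 CFU/milliliter final in RPMI 1640 (glutamine, phenol red indicator). MIC was read as the lowest peptide concentration showing no visible growth.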

| Structure (SMILES) | MIC S. aureus [1] [µg/mL] | MIC E. coli [2] [µg/mL] | MIC P. aeruginosa [3] [µg/mL] | MIC S. dublin (Salmonella dublin (Lane)) [µg/mL] | MIC S. epidermidis [4] [µg/mL] | MIC P. acnes [5] [c ug/mL] | MIC C. albicans [6] [e ug/mL] |
| --- | --- | --- | --- | --- | --- | --- | --- |
| CCCCCCCCCC(=O)NCCCC[C@@H](NC(=O)[C@@H](CCCNC(=N)N)NC(=O)[C@@H](CC(C)C)NC(=O)[C@@H](Cc1ccccc1)NC(=O)[C@@H](CC(N)=O)NC(=O)[C@@H](CCCNC(=N)N)NC(=O)[C@@H](C)NC(=O)[C@H](NC(=O)[C@@H](CC(=O)O)NC(=O)[C@@H](CCCNC(=N)N)NC(=O)[C@@H](Cc1c[nH]c2ccccc12)NC(=O)[C@@H](CCCNC(=N)N)NC(=O)[C@@H](CO)NC(=O)[C@H](N)CCCNC(=N)N)C(C)C)C(N)=O [Peptide 194, H2N-rsrwrdvarnflrk(Decanyl)-NH2] (H-[dR][dS][dR][dW][dR][dD][dV][dA][dR][dN][dF][dL][dR][dK](Decanoyl)-NH2) | 2 (≈ 0.993 µM) | 2 (≈ 0.993 µM) | 2 (≈ 0.993 µM) | 4 (≈ 1.99 µM) | 1 (≈ 0.497 µM) | 4 | 16 |
| CCCCCCCC(=O)NCCCC[C@@H](NC(=O)[C@@H](CCCNC(=N)N)NC(=O)[C@@H](CC(C)C)NC(=O)[C@@H](Cc1ccccc1)NC(=O)[C@@H](CC(N)=O)NC(=O)[C@@H](CCCNC(=N)N)NC(=O)[C@@H](C)NC(=O)[C@H](NC(=O)[C@@H](CC(=O)O)NC(=O)[C@@H](CCCNC(=N)N)NC(=O)[C@@H](Cc1c[nH]c2ccccc12)NC(=O)[C@@H](CCCNC(=N)N)NC(=O)[C@@H](CO)NC(=O)[C@H](N)CCCNC(=N)N)C(C)C)C(N)=O [Peptide 193, H2N-rsrwrdvarnflrk(Octanyl)-NH2] (H-[dR][dS][dR][dW][dR][dD][dV][dA][dR][dN][dF][dL][dR][dK](Octanoyl)-NH2) | 16 (≈ 8.06 µM) | 8 (≈ 4.03 µM) | 16 (≈ 8.06 µM) | 16 (≈ 8.06 µM) | 2 (≈ 1.01 µM) | 8 | 32 |
| CCCCCCCCCCCC(=O)N[C@H](CCCNC(=N)N)C(=O)N[C@H](CO)C(=O)N[C@H](CCCNC(=N)N)C(=O)N[C@H](Cc1c[nH]c2ccccc12)C(=O)N[C@H](CCCNC(=N)N)C(=O)N[C@H](CC(=O)O)C(=O)N[C@H](CC(C)C)C(=O)N[C@H](CC(C)C)C(=O)N[C@H](CCCNC(=N)N)C(=O)N[C@H](CC(N)=O)C(=O)N[C@H](CC(C)C)C(=O)N[C@H](CCSC)C(=O)N[C@H](CCCNC(=N)N)C(N)=O [Peptide 133, Lauryl-rsrwrdllrnlmr-NH2] (Lauroyl-[dR][dS][dR][dW][dR][dD][dL][dL][dR][dN][dL][dM][dR]-NH2) | 4 (≈ 2.05 µM) | 16 (≈ 8.19 µM) | 32 (≈ 16.4 µM) | 8 (≈ 4.1 µM) | 2 (≈ 1.02 µM) | 2 | 2 |
| CCCCCCCCCCCC(=O)N[C@@H](CCCNC(=N)N)C(=O)N[C@@H](CO)C(=O)N[C@@H](CCCNC(=N)N)C(=O)N[C@@H](Cc1c[nH]c2ccccc12)C(=O)N[C@@H](CCCNC(=N)N)C(=O)N[C@@H](CC(=O)O)C(=O)N[C@H](C(=O)N[C@@H](C)C(=O)N[C@@H](CCCNC(=N)N)C(N)=O)C(C)C [Peptide 101, Lauryl-RSRWRDVAR-NH2] (Lauroyl-RSRWRDVAR-NH2) | 4 (≈ 2.89 µM) | 32 (≈ 23.1 µM) | 32 (≈ 23.1 µM) | >64 | 2 (≈ 1.45 µM) | >64 | >64 |
| CCCCCCCCCCCC(=O)N[C@H](CCCNC(=N)N)C(=O)N[C@H](CO)C(=O)N[C@H](CCCNC(=N)N)C(=O)N[C@H](Cc1c[nH]c2ccccc12)C(=O)N[C@H](CCCNC(=N)N)C(=O)N[C@H](CC(=O)O)C(=O)N[C@@H](C(=O)N[C@H](C)C(=O)N[C@H](CCCNC(=N)N)C(=O)N[C@H](CC(=O)O)C(=O)N[C@H](Cc1ccccc1)C(=O)N[C@H](CCSC)C(=O)N[C@H](CCCNC(=N)N)C(N)=O)C(C)C [Peptide 249, Lauryl-rsrwrdvardfmr-NH2] (Lauroyl-[dR][dS][dR][dW][dR][dD][dV][dA][dR][dD][dF][dM][dR]-NH2) | 2 (≈ 1.04 µM) | 4 (≈ 2.07 µM) | 8 (≈ 4.14 µM) | 4 (≈ 2.07 µM) | 2 (≈ 1.04 µM) | 8 | 8 |
| CCCCCCCCCCCC(=O)N[C@@H](CCCNC(=N)N)C(=O)N[C@@H](CO)C(=O)N[C@@H](CCCNC(=N)N)C(=O)N[C@@H](Cc1c[nH]c2ccccc12)C(=O)N[C@@H](CCCNC(=N)N)C(=O)N[C@@H](CC(=O)O)C(=O)N[C@H](C(=O)N[C@@H](CC(C)C)C(=O)N[C@@H](CCCNC(=N)N)C(=O)N[C@@H](CC(N)=O)C(=O)N[C@@H](Cc1ccccc1)C(=O)N[C@@H](CC(C)C)C(=O)N[C@@H](CCCNC(=N)N)C(N)=O)C(C)C [Peptide 136, Lauryl-RSRWRDVLRNFLR-NH2] (Lauroyl-RSRWRDVLRNFLR-NH2) | 4 (≈ 2.05 µM) | 8 (≈ 4.09 µM) | 32 (≈ 16.4 µM) | 8 (≈ 4.09 µM) | 1 (≈ 0.511 µM) | 8 | 1 |
| CCCCCCCCCCCC(=O)N[C@H](CCCNC(=N)N)C(=O)N[C@H](CO)C(=O)N[C@H](CCCNC(=N)N)C(=O)N[C@H](Cc1c[nH]c2ccccc12)C(=O)N[C@H](C)C(=O)N[C@H](CC(=O)O)C(=O)N[C@@H](C(=O)N[C@H](C)C(=O)N[C@H](CCCNC(=N)N)C(=O)N[C@H](CC(N)=O)C(=O)N[C@H](Cc1ccccc1)C(=O)N[C@H](CCSC)C(=O)N[C@H](CCCNC(=N)N)C(N)=O)C(C)C [Peptide 240, Lauryl-rsrwadvarnfmr-NH2] (Lauroyl-[dR][dS][dR][dW][dA][dD][dV][dA][dR][dN][dF][dM][dR]-NH2) | 2 (≈ 1.08 µM) | 4 (≈ 2.17 µM) | 16 (≈ 8.67 µM) | 4 (≈ 2.17 µM) | 2 (≈ 1.08 µM) | 16 | 16 |
| CCCCCCCCCCCC(=O)N[C@H](CCCNC(=N)N)C(=O)N[C@H](CCCNC(=N)N)C(=O)N[C@H](CCCNC(=N)N)C(=O)N[C@H](Cc1c[nH]c2ccccc12)C(=O)N[C@H](CCCNC(=N)N)C(=O)N[C@H](CCCNC(=N)N)C(=O)N[C@@H](C(=O)N[C@H](C)C(=O)N[C@H](CCCNC(=N)N)C(=O)N[C@H](CCCNC(=N)N)C(=O)N[C@H](Cc1ccccc1)C(=O)N[C@H](CC(C)C)C(=O)N[C@H](CCCNC(=N)N)C(N)=O)C(C)C [Peptide 222, Lauryl-rrrwrrvarrflr-NH2] (Lauroyl-[dR][dR][dR][dW][dR][dR][dV][dA][dR][dR][dF][dL][dR]-NH2) | 4 (≈ 1.94 µM) | 16 (≈ 7.75 µM) | 8 (≈ 3.87 µM) | >64 | 1 (≈ 0.484 µM) | >64 | 2 |
| CCCCCCCCCCCC(=O)N[C@H](CCCNC(=N)N)C(=O)N[C@H](Cc1c[nH]c2ccccc12)C(=O)N[C@H](CCCNC(=N)N)C(=O)N[C@H](CC(=O)O)C(=O)N[C@@H](C(=O)N[C@H](C)C(=O)N[C@H](CCCNC(=N)N)C(=O)N[C@H](CC(N)=O)C(=O)N[C@H](Cc1ccccc1)C(=O)N[C@H](CCSC)C(=O)N[C@H](CCCNC(=N)N)C(N)=O)C(C)C [Peptide 130, Lauryl-rwrdvarnfmr-NH2] (Lauroyl-[dR][dW][dR][dD][dV][dA][dR][dN][dF][dM][dR]-NH2) | 4 (≈ 2.37 µM) | 8 (≈ 4.74 µM) | 8 (≈ 4.74 µM) | 16 (≈ 9.48 µM) | 2 (≈ 1.18 µM) | 8 | 16 |
| CCCCCCCCCCCC(=O)N[C@H](CCCNC(=N)N)C(=O)N[C@H](CO)C(=O)N[C@H](CCCNC(=N)N)C(=O)N[C@H](Cc1c[nH]c2ccccc12)C(=O)N[C@H](CCCNC(=N)N)C(=O)N[C@H](CC(=O)O)C(=O)N[C@@H](C(=O)N[C@H](C)C(=O)N[C@H](CCCNC(=N)N)C(=O)N[C@H](CC(N)=O)C(=O)N[C@H](Cc1ccccc1)C(N)=O)C(C)C [Peptide 116, Lauryl-rsrwrdvarnf-NH2] (Lauroyl-[dR][dS][dR][dW][dR][dD][dV][dA][dR][dN][dF]-NH2) | 8 (≈ 4.87 µM) | 8 (≈ 4.87 µM) | 8 (≈ 4.87 µM) | 8 (≈ 4.87 µM) | 4 (≈ 2.43 µM) | 8 | 32 |

From patent US20050282755A1, “Compositions having antimicrobial activity and uses thereof” (priority 2004, published 2005)
